In patent publication US10392423B2, “Peptide-based inhibitors of MLL/SET1 family core complexes” (The Research Foundation for the State University of New York, priority 2017, dated 2019):
Where “and” joins values, the source holds several entries; their conditions need not be identical. Equal entries are not always repeated. Where two headings read alike, the source gives them in different places. One block for each molecule: values may come before it.

Key:
WDR5 [1] = target: T1, WDR5 (Homo sapiens, UniProt P61964); details: ITC; reported values of other inhibitors; read-out: Dissociation Constant Kd towards WDR5; cited from earlier work
T1 construct: the experimental cell containing full-length WDR5 (20 μM); His; made in house; host or cells: Escherichia coli Rosetta II (DE3) pLysS

WDR5 [2] = target: T1, WDR5; assay: Isothermal titration calorimetry (ITC) binding to WDR5
Method: Isothermal titration calorimetry (ITC). Purified full-length WDR5 and Win6mer peptide were extensively dialyzed in separate Micro Float-A-Lyzer® Dialysis Devices, MWCO 500-1000 Da (Spectrum Labs) against sample buffer consisting of 20 mM Tris pH 7.5, 300 mM NaCl, 1 mM TCEP, 1 μM ZnCl2 buffer. ITC experiments were carried out at 20° C. using a VP-ITC micro-calorimeter (MicroCal). After an initial delay of 120 sec, Win6mer (200 μM) was titrated into the experimental cell containing full-length WDR5 (20 μM) over the course of 45 injections, 5 μL each. Reference power was set to 10 μCal/sec and stirring speed was set to 295 rpm. Data were integrated using NITPIC. SEDPHAT was used to fit the integrated data to a single-site heterogeneous association model, using simulated annealing and Maxquardt-Levenberg algorithms. Automatic confidence interval search with projection method was applied to estimate the error of the determined thermodynamic parameters. Confidence interval was set to 2σ (95%). ITC figure was generated using GUSSI.

MLL1 core complex = target: T2, MLL1 core complex (Homo sapiens, UniProt P61964); assay: Core complex methyltransferase inhibition, scintillation proximity assay; assay type: biochemical
T2 construct: Full-length WRAD constructs in pHis parallel expression vectors; His; made in house; host or cells: Escherichia coli Rosetta II (DE3) pLysS
Method: (§1) MLL Core Complex inhibition by Win6mer. Assay conditions: MLL core complexes were reconstituted by mixing purified GST-SET domains (MLL1, MLL4, MLL2, MLL3, SETd1A, and SETd1B) with WDR5, RbBP5, ASH2L, and DPY-30 in stoichiometric amounts (GST-SET:W:R:A:D 1:1:1:1:2). The activity of each core complex was assessed under the following conditions: 2 μM SET1 core complex, 80 μM biotinylated H3 substrate peptide, 0.68 μM ^3H-AdoMet (0.5 μCi) at 15° C. in Assay Buffer (50 mM Tris pH 8.5, 200 mM NaCl, 5 mM MgCl2, 5% glycerol), in a total volume of 10 μL. Core complex- or H3 peptide-only reactions incubated with ^3H-AdoMet served as background controls. Reactions were quenched with 167 mM EDTA (ethylenediaminetetraacetic acid). Each sample was diluted in 50 μL Buffer 2 containing 0.2 mg/mL BSA and then transferred to 96-well streptavidin-coated FlashPlate® Microplates (Perkin Elmer). Samples were incubated overnight at 4° C. to allow binding of the biotinylated H3 peptide to the streptavidin-coated surface prior to scintillation counting in Hidex Sense microplate reader (LabLogic). Determination of linear ranges: The activity of MLL core complexes towards H3K4me0, H3K4me1, or H3K4me2 substrate peptides was assayed as described above. Reactions were quenched at varying time points with 167 mM EDTA and prepared for scintillation counting on Streptavidin FlashPlates®. A plot of counts per minute (CPM) vs. time was constructed from which the linear range was determined. Single time points within the linear range were selected for each SET1 core complex for performing inhibition studies: H3K4me0: MLL1, MLL2*, SETd1A, and SETd1B*—5 min, MLL4—3 min, MLL3—15 min. H3K4me1: MLL1—5 min, MLL4—3 min, SETd1A—15 min, SETd1B—45 min. H3K4me2: SETd1A—2 hr, SETd1B—1 hr. (*1 μM of MLL2 and SETd1B core complex were used for H3K4me0 reactions). Dose response curves: Inhibition studies were performed in order to determine the efficiency of Win6mer as an MLL core complex inhibitor. The activity of each MLL core complex towards H3 substrate peptides was assessed (as described above) with increasing doses of Win6mer (0, 0.005, 0.05, 0.10, 0.5, 1.0, 2.5, 5.0, 10.0, and 50 μM). Reactions were quenched with 167 mM EDTA at the determined time points and prepared for scintillation counting on streptavidin-coated FlashPlastes® as described above.
(§2) The activity of SET1 core complexes at each Win6mer concentration point was normalized to the activity of the uninhibited core complex to obtain the relative methyltransferase activity. Inhibition data were plotted as relative methyltransferase activity vs. log [Win6mer] (nM). The Win6mer IC50 values for MLL1 and SETd1A core complexes were determined by fitting the data to a dose response with variable slope equation in Sigma Plot.

MLL2 core complex = target: T3, MLL2 core complex (Homo sapiens, UniProt P61964); assay: as above; assay type: biochemical; details: H3K4me0 substrate
T3 construct: Full-length WRAD constructs in pHis parallel expression vectors; His; made in house; host or cells: Escherichia coli Rosetta II (DE3) pLysS
Method: as §1, §2

MLL3 core complex = target: T4, MLL3 core complex (Homo sapiens, UniProt P61964); assay: as above; assay type: biochemical; details: H3K4me0 substrate
T4 construct: Full-length WRAD constructs in pHis parallel expression vectors; His; made in house; host or cells: Escherichia coli Rosetta II (DE3) pLysS
Method: as §1, §2

MLL4 core complex = target: T5, MLL4 core complex (Homo sapiens, UniProt P61964); assay: as above; assay type: biochemical; details: for IC50: 2 μM core complex, Win6mer up to 50 μM, read-out: Inhibition Efficiency, IC50
T5 construct: Full-length WRAD constructs in pHis parallel expression vectors; His; made in house; host or cells: Escherichia coli Rosetta II (DE3) pLysS
Method: as §1, §2

SETd1B core complex = target: T6, SETd1B core complex (Homo sapiens, UniProt P61964); assay: as above; assay type: biochemical; details: for IC50: Win6mer up to 50 μM, read-out: Inhibition Efficiency, IC50
T6 construct: Full-length WRAD constructs in pHis parallel expression vectors; His; made in house; host or cells: Escherichia coli Rosetta II (DE3) pLysS
Method: as §1, §2

[3] = test system: isolated SET1 family SET domains; assay: Isolated SET domain methyltransferase activity with Win6mer (radiometric, fluorography/LSC); assay type: biochemical, human; details: 100 μM Win6mer; isolated SET domains without WRAD
Method: Methyltransferase Assays. MLL core complex Win motif mutants. […] Reactions were quenched with SDS-loading buffer and separated by SDS-PAGE using a 4-12% Bis-Tris gel (Life Technologies) run at 200V for 30 minutes. The gels were enhanced at room temperature for 30 minutes (Enlightning, Perkin Elmer Inc.) then dried for 2.5 hours at 72° C. under constant vacuum. The dried gels were exposed to film (Kodak Biomax MS Film) at −80° C. for 4-24 hours prior to developing. Liquid scintillation counting (LSC) was performed by excising gel bands corresponding to histone H3 peptides, which were dissolved in 750 μL of Solvable (Perkin Elmer Inc.), incubated at room temperature for 30 minutes followed by incubation at 50° C. for 3 hours. The solubilized volume of each sample was transferred to liquid scintillation vials containing 10 mL of Ultima Gold XL liquid scintillation cocktail (Perkin Elmer Inc.). Samples were dark adapted for 1 hour then counted for 5 minutes each with a two-sigma error cut-off using an all-purpose scintillation counter (Beckman Coulter).
MLL SET domains treated with Win6mer. Isolated SET1 family SET domains (5 μM) were incubated with 1 μCi of ^3H-AdoMet (Perkin Elmer Inc.) and 100 μM of H3K4me0, H3K4me1, or H3K4me2 peptides, with and without 100 μM Win6mer, in Assay Buffer at 15° C. for 8 hours. Reactions were quenched with SDS-loading buffer. […]

[4] = target: T7, SET1 family core complex assembly (WDR5, RbBP5, ASH2L) (Homo sapiens, UniProt P61964); assay: GST pull-down of endogenous WRAD components from MCF-7 cell extracts with or without Win6mer; assay type: binding; details: 10 μM Win6mer
T7 construct: host or cells: MCF-7 cell extract
Method: For pull-down assays using cell extracts, a 3 μM concentration of each GST-tagged SET domain was incubated with 100 μg of MCF-7 cell extract for 16 hours at 4° C. Following the initial incubation, 20 μL of a 50:50 slurry of glutathione agarose beads was added to each sample and incubated for an additional 2 hours at 4° C. Samples were washed 3× in radioimmunoprecipitation (RIPA) buffer. Samples were eluted from beads by boiling the samples at 95° C. in SDS-loading buffer for 10 minutes. Samples of the supernatant were separated on a 4-12% Bis-Tris gel and transferred to a PVDF membrane at 30V for 1 hour. PVDF membranes were blocked for 1 hour with a 5% non-fat milk solution then incubated with primary antibody (1:2,000) for 1 hour at room temperature. Blots were washed 4 times then incubated with an HRP-conjugated anti-rabbit secondary antibody (1:5,000) for 1 hour at room temperature. Blots were washed an additional 4 times, then visualized by chemiluminesence (Clarity Western, BioRad) on a BioRad ChemiDoc MP Imager using the chemiluminesence setting.

SMILES: COC(=O)c1ccc(N2CCN(C)CC2)c(NC(=O)c2cccc(OC)c2)c1 [WDR5-0103]
Kd (WDR5 [1]): 450 nM

increase in binding affinity over the best naturally occurring Win motif sequence (WDR5 [2]): ~18 fold
Kd (WDR5 [2]; read-out: Dissociation Constant Kd towards WDR5): ~3 nM and 2.9 nM
IC50 (MLL1 core complex; 1.8 μM of enzyme complex assayed, read-out: IC50): 2200 nM
IC50 (MLL1 core complex; 2 μM of enzyme complex assayed, read-out: average IC50): 2200 nM
IC50 (MLL1 core complex; H3K4me1 substrate, 2 μM core complex, read-out: Inhibition Efficiency, IC50 [95% confidence interval]): 2200 nM
methyltransferase activity of core complex on treatment (MLL2 core complex): uninhibited
IC50 (MLL2 core complex; 1 μM core complex, Win6mer up to 50 μM, read-out: Inhibition Efficiency, IC50): > 50000 nM
methyltransferase activity of core complex on treatment (MLL3 core complex): uninhibited
IC50 (MLL3 core complex; 2 μM core complex, Win6mer up to 50 μM, read-out: Inhibition Efficiency, IC50): > 50000 nM
methyltransferase activity of core complex on treatment (MLL4 core complex; H3K4me0 substrate): uninhibited
IC50 (MLL4 core complex; H3K4me0 substrate): > 50000 nM
IC50 (MLL4 core complex; H3K4me1 substrate): > 50000 nM
methyltransferase activity of core complex on treatment (SETd1B core complex; H3K4me0 substrate): uninhibited
IC50 (SETd1B core complex; H3K4me0 substrate, 1 μM core complex): > 50000 nM
IC50 (SETd1B core complex; H3K4me1 substrate, 2 μM core complex): > 50000 nM
IC50 (SETd1B core complex; H3K4me2 substrate, 2 μM core complex): > 50000 nM
effect on intrinsic monomethyltransferase activity of SET1 family members [3]: did not affect
RbBP5/ASH2L binding of MLL2, MLL3, MLL4 and SETd1B [4]: only a modest reduction
RbBP5/ASH2L interaction with MLL1 and SETd1A complexes [4]: near total loss
ability of all six SET1 family members to interact with endogenous WDR5 [4]: greatly reduced
SMILES: CC(=O)N[C@@H](C)C(=O)N[C@@H](CCCNC(=N)N)C(=O)N[C@H](C(=O)N[C@@H](CCC(=O)O)C(=O)N[C@H](C(=O)N[C@@H](Cc1ccc(O)cc1)C(N)=O)C(C)C)[C@@H](C)O [Win6mer, Ac-ARTEVY-NH2]
